Laboratory results reported in ChEMBL document CHEMBL1144147, “New annonaceous acetogenins from Rollinia mucosa” (J Nat Prod, 1999).
In brackets after ≈: the same amount, converted by molar mass.

Assay: Cytotoxicity against human HepG2(2.2.15) cells after 3 day
Format: functional, cell-based
Details: HepG2 2.2.15, 72 h

## COc1cccc2c1C(=O)c1c(O)c3c(c(O)c1C2=O)C[C@@](O)(C(=O)CO)C[C@@H]3O[C@H]1C[C@H](N)[C@H](O)[C@H](C)O1 [DOXORUBICIN]
  IC50: 0.45 µg/mL (≈ 0.828 µM)
